Results reported in patent US8367365B2, “Method for determining carbohydrate and kit for determining carbohydrate” (priority 2008, dated 2013).
Like-named read-outs stand apart in the source and are kept apart here.

System: porcine small intestinal mucosal disaccharidase (suspension of porcine small intestinal mucosal brush border membrane)
Format: in vitro ADME
Details: porcine small intestine-derived disaccharidase added to the enzyme reaction system, HPLC
Excerpt: In the method for determining a carbohydrate according to the embodiment of the present invention and the method for determining a carbohydrate according to Examples described below, a suspension of porcine small intestinal mucosal brush border membrane is used as the animal-derived low-molecular-weight carbohydrate digestive enzyme.

Digestion by porcine small intestinal mucosal disaccharidases (result in words): almost completely digested | Digestion by porcine small intestinal mucosal disaccharidases (result in words) (listed as Sucrose): completely digested
SMILES: OC[C@H]1O[C@@](CO)(O[C@H]2O[C@H](CO)[C@@H](O)[C@H](O)[C@H]2O)[C@@H](O)[C@@H]1O [sucrose]
